*1 amine or outer side, *2 acyl side, *3 side chain or, on linkers, in order; H or OH if unused. Where a SMILES comes first, the peptide text is derived from it. Bridges are numbered along the chain shown (N, C = ends). Roman numbers before positions name the chains, in order. [ ]: non-standard residue; d: D form. X1 = O=C(OCCOCCOCCOCCOCCOCCOCCOCCOCCOCCOCCOCCOCCOCCOCCOCCOC(=O)[*:2])[*:1]; X2 = O=C(OCCOCCOCCOCCOCCOCCOCCOCCOCCOCCOCCOCCOC(=O)[*:2])[*:1]; Phe(4-guanidino) = N=C(N)Nc1ccc(C[C@H](N)C(=O)O)cc1; hTyr = N[C@@H](CCc1ccc(O)cc1)C(=O)O; Hyp = O=C(O)[C@@H]1C[C@@H](O)CN1; tBuAla = CC(C)(C)C[C@H](N)C(=O)O; Tle = CC(C)(C)[C@H](N)C(=O)O
Experiments:
VEGFR-2 = biological target: T1, VEGFR-2 (Homo sapiens, UniProt P35968); assay: pVEGFR AlphaLISA assay (VEGFR-2 phosphorylation, p-Tyr1175) in HUVECs; format: cell-based; settings: 10 minutes stimulation, % activity, maximum VEGF165a signal = 100%, unstimulated = 0%
T1 construct: endogenous in cells; host or cells: HUVEC
Procedure: To evaluate the VEGFR-2 activation ability of the VEGFR-2 agonist peptides of the present invention, VEGFR-2 phosphorylation was verified. HUVECs were cultured using EGM™ -2 Endothelial Cell Growth Medium-2 BulletKit (LONZA; CC-3162). After detaching cells using Tryple (Thermo Fisher Scientific), they were seeded into a 96-well PDL-coated plate (Corning: 354461) at a density of 24,000 cells per well and cultured for 2 days. For starvation, the medium was replaced with EBM-2 medium (LONZA) containing 0.5% FBS (Thermo Fisher Scientific), 0.1% heparin (included with the above LONZA CC-3162), and 0.1% gentamicin (Nacalai), and the cells were cultured for 18 hours. Subsequently, Recombinant Human VEGF165a Protein (R&D Systems) or the peptide was added, and the cells were cultured in a CO2 incubator at 37°C. After 10 minutes of stimulation, cells were lysed using the Lysis Buffer included in the AlphaLISA SureFire Ultra VEGFR-2 (p-Tyr1175) Assay Kit (PerkinElmer) to lyse the cells. The procedure was performed according to the kit protocol, and signal detection was performed using a SpectraMax Paradigm multimode microplate reader (Molecular Devices). The obtained signals were analyzed using GraphPad Prism, and % activity was calculated with the maximum signal induced by VEGF165a set as 100% and the unstimulated control as 0%.
The VEGF165a concentration was evaluated at five points (0.08, 0.31, 1.25, 5, 20 nM) using 1/4-fold dilutions starting from 20 nM to determine the maximum value (100%). Peptide concentrations tested were: 3.2, 16, 80 nM for dimer structure number 1; 10, 100 nM for dimer structures numbers 2-41; and 1.25, 5, 20 nM for dimer structures numbers 42-57. […]
Peptides showing 50% or more activity at 10 nM were designated 2-A, those showing 50% or more activity at 100 nM were designated 2-B, and those showing 1% or more but less than 50% activity at 100 nM were designated 2-C.
Peptides showing 50% or more activity at 1.25 nM were designated 3-A, those showing 50% or more activity at 5 nM were designated 3-B, those showing 50% or more activity at 20 nM were designated 3-C, and those showing 1% or more but less than 50% activity at 20 nM were designated 3-D.

ERK = assay: pERK AlphaLISA assay (ERK phosphorylation, p-Erk1/2 Thr202/Tyr204) in HUVEC lysate; format: cell-based, human; settings: HUVEC lysate of the pVEGFR assay; % activity, maximum VEGF165a signal = 100%, unstimulated = 0%; peptide 10, 100 nM (dimer structures 2-41)
Procedure: To evaluate the intracellular signaling activation ability of the VEGFR-2 agonist peptides of the present invention, ERK phosphorylation was verified. Using the lysate employed in the pVEGFR AlphaLISA assay, the assay was performed according to the protocol of the AlphaLISA SureFire Ultra p-Erk1/2 (Thr202/Tyr204) Assay Kit (PerkinElmer). Signal detection was performed using a SpectraMax Paradigm multimode microplate reader (Molecular Devices). The obtained signals were analyzed using GraphPad Prism, and % activity was calculated with the maximum signal induced by VEGF165a set as 100% and the unstimulated control as 0%.
The VEGF165a concentration was evaluated at five points (0.08, 0.31, 1.25, 5, 20 nM) using 1/4-fold dilutions starting from 20 nM to determine the maximum value (100%). Peptide concentrations tested were: 3.2, 16, 80 nM for dimer structure […], 100 nM for dimer structures numbers 2-41; and 1.25, 5, 20 nM for dimer structures numbers 42-57.
For % activity, peptides showing ≥50% activity at 3.2 nM were designated 1-A, those showing ≥50% activity at 16 nM were designated 1-B, those showing ≥50% activity at 80 nM were designated 1-C, and those showing ≥1% but <50% activity at 80 nM were designated 1-D. […]

[1] = peptide 1.25, 5, 20 nM (dimer structures 42-57)

T1 sequence (P35968 20-1356): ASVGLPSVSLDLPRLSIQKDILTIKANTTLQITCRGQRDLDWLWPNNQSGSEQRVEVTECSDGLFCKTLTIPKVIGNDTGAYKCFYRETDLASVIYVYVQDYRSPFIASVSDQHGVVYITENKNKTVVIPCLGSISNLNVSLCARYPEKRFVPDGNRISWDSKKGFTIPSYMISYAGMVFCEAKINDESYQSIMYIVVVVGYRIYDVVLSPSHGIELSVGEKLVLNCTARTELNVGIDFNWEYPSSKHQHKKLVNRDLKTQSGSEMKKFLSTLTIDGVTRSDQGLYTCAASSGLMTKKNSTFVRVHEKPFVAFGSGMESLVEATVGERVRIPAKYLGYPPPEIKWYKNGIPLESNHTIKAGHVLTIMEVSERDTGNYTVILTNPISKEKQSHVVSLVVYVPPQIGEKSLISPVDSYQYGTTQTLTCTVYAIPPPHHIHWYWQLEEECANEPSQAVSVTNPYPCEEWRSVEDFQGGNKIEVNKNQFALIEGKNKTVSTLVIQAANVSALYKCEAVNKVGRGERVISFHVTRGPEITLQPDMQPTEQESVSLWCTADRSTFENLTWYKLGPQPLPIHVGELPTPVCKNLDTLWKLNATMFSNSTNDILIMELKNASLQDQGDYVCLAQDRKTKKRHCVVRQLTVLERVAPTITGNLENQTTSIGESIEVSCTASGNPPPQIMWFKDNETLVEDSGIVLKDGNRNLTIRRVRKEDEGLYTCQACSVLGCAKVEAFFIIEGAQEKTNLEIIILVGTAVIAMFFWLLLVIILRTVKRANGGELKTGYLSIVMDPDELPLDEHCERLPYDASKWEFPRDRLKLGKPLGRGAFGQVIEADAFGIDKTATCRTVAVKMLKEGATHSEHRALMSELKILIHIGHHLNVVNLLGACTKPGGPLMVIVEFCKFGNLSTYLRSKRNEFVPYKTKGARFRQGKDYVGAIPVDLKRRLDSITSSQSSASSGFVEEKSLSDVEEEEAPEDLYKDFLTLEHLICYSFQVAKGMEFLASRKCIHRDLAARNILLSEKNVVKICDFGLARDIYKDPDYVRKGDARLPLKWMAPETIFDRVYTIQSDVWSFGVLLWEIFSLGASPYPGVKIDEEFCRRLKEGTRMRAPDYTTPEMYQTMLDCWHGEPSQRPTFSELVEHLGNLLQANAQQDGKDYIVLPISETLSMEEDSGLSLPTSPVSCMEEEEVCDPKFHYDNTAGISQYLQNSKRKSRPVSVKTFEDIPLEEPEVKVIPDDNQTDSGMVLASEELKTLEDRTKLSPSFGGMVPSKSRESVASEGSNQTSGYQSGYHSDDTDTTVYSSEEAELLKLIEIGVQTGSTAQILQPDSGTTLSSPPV

SMILES	pVEGFR2 Assay Results (VEGFR-2; peptide 10, 100 nM (dimer structures 2-41))	pERK Assay Results (ERK)	pVEGFR2 Assay Results (VEGFR-2; [1])
CC(C)[C@@H]1NC(=O)CNC(=O)[C@H](CCCCNC(=O)OCCOCCOCCOCCOCCOCCOCCOCCOCCOCCOCCOCCOC(=O)NCCCC[C@@H]2NC(=O)[C@H](C(C)C)NC(=O)[C@H](CC(=O)O)NC(=O)[C@H](C(C)C)NC(=O)[C@H](Cc3c[nH]c4ccccc34)NC(=O)[C@H](Cc3c[nH]c4ccccc34)NC(=O)CSC[C@@H](C(=O)NCC(N)=O)NC(=O)[C@H](CC(=O)O)NC(=O)[C@H](CCc3ccc(O)cc3)NC(=O)[C@H](Cc3ccccc3)NC(=O)[C@H](Cc3ccc(O)cc3)NC(=O)[C@H](CC(N)=O)NC(=O)[C@H](C(C)C)NC(=O)CNC2=O)NC(=O)[C@H](C(C)C)NC(=O)[C@H](CC(=O)O)NC(=O)[C@H](C(C)C)NC(=O)[C@H](Cc2c[nH]c3ccccc23)NC(=O)[C@H](Cc2c[nH]c3ccccc23)NC(=O)CSC[C@@H](C(=O)NCC(N)=O)NC(=O)[C@H](CC(=O)O)NC(=O)[C@H](CCc2ccc(O)cc2)NC(=O)[C@H](Cc2ccccc2)NC(=O)[C@H](Cc2ccc(O)cc2)NC(=O)[C@H](CC(N)=O)NC1=O [compound 37] (I: {CH2CO}-WWVDVKGVNYF[hTyr]DCG-NH2 / II: {CH2CO}-WWVDVKGVNYF[hTyr]DCG-NH2; linker I:6-II:6 via X2; thioether I:N-I:14, II:N-II:14)	2-A (50% or more activity at 10 nM)	2-B (50% or more activity at 100 nM)	
CC(C)[C@@H]1NC(=O)[C@H](CC(=O)O)NC(=O)[C@H](C(C)(C)C)NC(=O)[C@H](Cc2c[nH]c3ccccc23)NC(=O)[C@H](Cc2c[nH]c3ccccc23)NC(=O)CSC[C@@H](C(=O)NCC(N)=O)NC(=O)[C@H](CC(=O)O)NC(=O)[C@H](CCc2ccc(O)cc2)NC(=O)[C@H](Cc2ccc(NC(=N)N)cc2)NC(=O)[C@H](Cc2ccc(O)cc2)NC(=O)[C@H](CC(C)(C)C)NC(=O)[C@H](CC(=O)O)NC(=O)[C@H](CC(=O)O)NC(=O)[C@H](CCCCNC(=O)OCCOCCOCCOCCOCCOCCOCCOCCOCCOCCOCCOCCOCCOCCOCCOCCOC(=O)NCCCC[C@@H]2NC(=O)[C@H](C(C)C)NC(=O)[C@H](CC(=O)O)NC(=O)[C@H](C(C)(C)C)NC(=O)[C@H](Cc3c[nH]c4ccccc34)NC(=O)[C@H](Cc3c[nH]c4ccccc34)NC(=O)CSC[C@@H](C(=O)NCC(N)=O)NC(=O)[C@H](CC(=O)O)NC(=O)[C@H](CCc3ccc(O)cc3)NC(=O)[C@H](Cc3ccc(NC(=N)N)cc3)NC(=O)[C@H](Cc3ccc(O)cc3)NC(=O)[C@H](CC(C)(C)C)NC(=O)[C@H](CC(=O)O)NC(=O)[C@H](CC(=O)O)NC2=O)NC1=O [compound 53] (I: {CH2CO}-WW[Tle]DVKDD[tBuAla]Y[Phe(4-guanidino)][hTyr]DCG-NH2 / II: {CH2CO}-WW[Tle]DVKDD[tBuAla]Y[Phe(4-guanidino)][hTyr]DCG-NH2; linker I:6-II:6 via X1; thioether I:N-I:14, II:N-II:14)			3-B (50% or more activity at 5 nM)
CC(C)[C@@H]1NC(=O)[C@H](CC(=O)O)NC(=O)[C@H](C(C)(C)C)NC(=O)[C@H](Cc2c[nH]c3ccccc23)NC(=O)[C@H](Cc2c[nH]c3ccccc23)NC(=O)CSC[C@@H](C(=O)NCC(N)=O)NC(=O)[C@@H]2C[C@@H](O)CN2C(=O)[C@H](CCc2ccc(O)cc2)NC(=O)[C@H](Cc2ccc(NC(=N)N)cc2)NC(=O)[C@H](Cc2ccc(O)cc2)NC(=O)[C@H](CC(C)(C)C)NC(=O)[C@H](CC(=O)O)NC(=O)[C@H](CC(=O)O)NC(=O)[C@H](CCCCNC(=O)OCCOCCOCCOCCOCCOCCOCCOCCOCCOCCOCCOCCOC(=O)NCCCC[C@@H]2NC(=O)[C@H](C(C)C)NC(=O)[C@H](CC(=O)O)NC(=O)[C@H](C(C)(C)C)NC(=O)[C@H](Cc3c[nH]c4ccccc34)NC(=O)[C@H](Cc3c[nH]c4ccccc34)NC(=O)CSC[C@@H](C(=O)NCC(N)=O)NC(=O)[C@@H]3C[C@@H](O)CN3C(=O)[C@H](CCc3ccc(O)cc3)NC(=O)[C@H](Cc3ccc(NC(=N)N)cc3)NC(=O)[C@H](Cc3ccc(O)cc3)NC(=O)[C@H](CC(C)(C)C)NC(=O)[C@H](CC(=O)O)NC(=O)[C@H](CC(=O)O)NC2=O)NC1=O [compound 54] (I: {CH2CO}-WW[Tle]DVKDD[tBuAla]Y[Phe(4-guanidino)][hTyr][Hyp]CG-NH2 / II: {CH2CO}-WW[Tle]DVKDD[tBuAla]Y[Phe(4-guanidino)][hTyr][Hyp]CG-NH2; linker I:6-II:6 via X2; thioether I:N-I:14, II:N-II:14)			3-B (50% or more activity at 5 nM)
CC(C)[C@@H]1NC(=O)[C@H](CC(=O)O)NC(=O)[C@H](CCc2ccc(O)cc2)NC(=O)[C@H](Cc2c[nH]c3ccccc23)NC(=O)[C@H](Cc2c[nH]c3ccccc23)NC(=O)CSC[C@@H](C(=O)NCC(N)=O)NC(=O)[C@H](CC(=O)O)NC(=O)[C@H](CCc2ccc(O)cc2)NC(=O)[C@H](Cc2ccc(NC(=N)N)cc2)NC(=O)[C@H](Cc2ccc(O)cc2)NC(=O)[C@H](CC(C)(C)C)NC(=O)[C@H](CC(=O)O)NC(=O)[C@H](CC(=O)O)NC(=O)[C@H](CCCCNC(=O)OCCOCCOCCOCCOCCOCCOCCOCCOCCOCCOCCOCCOC(=O)NCCCC[C@@H]2NC(=O)[C@H](C(C)C)NC(=O)[C@H](CC(=O)O)NC(=O)[C@H](CCc3ccc(O)cc3)NC(=O)[C@H](Cc3c[nH]c4ccccc34)NC(=O)[C@H](Cc3c[nH]c4ccccc34)NC(=O)CSC[C@@H](C(=O)NCC(N)=O)NC(=O)[C@H](CC(=O)O)NC(=O)[C@H](CCc3ccc(O)cc3)NC(=O)[C@H](Cc3ccc(NC(=N)N)cc3)NC(=O)[C@H](Cc3ccc(O)cc3)NC(=O)[C@H](CC(C)(C)C)NC(=O)[C@H](CC(=O)O)NC(=O)[C@H](CC(=O)O)NC2=O)NC1=O [compound 57] (I: {CH2CO}-WW[hTyr]DVKDD[tBuAla]Y[Phe(4-guanidino)][hTyr]DCG-NH2 / II: {CH2CO}-WW[hTyr]DVKDD[tBuAla]Y[Phe(4-guanidino)][hTyr]DCG-NH2; linker I:6-II:6 via X2; thioether I:N-I:14, II:N-II:14)			3-D (1% or more but less than 50% activity at 20 nM)

— EP4748847A1, “PEPTIDE COMPLEX HAVING VEGFR -2 AGONIST ACTIVITY” (Peptidream Inc, priority 2023, dated 2025)
